For this test, the target named is T1, NLRP3 inflammasome (Homo sapiens, UniProt Q96P20).
T1 construct: host or cells: THP-1 human monocytic cells, PMA-treated, stimulated with gramicidin
As to the kind of experiment: ASC-SPECK formation in THP-1 cells after gramicidin stimulation (NLRP3 inflammasome activation). The test is classed as cell-based. Particulars: PMA-treated human monocytic THP-1 cells, compound 1 h before 12.5 ug/ml gramicidin, 3 h, ASC SPECK imaging; read-out: EC50 (nM) for Examples that inhibit NLRP3 inflammasome activation. The procedure:
The ability of compounds to inhibit NLRP3 inflammasome activation was determined in vitro by monitoring formation of the ASC-SPECK in human monocytic THP-1 cells after stimulation. THP-1 cells (ATCC catalog #TIB-202) were maintained in complete growth media containing Roswell Park Memorial Institute RPMI (ATCC catalog #30-2001), 10% heat inactivated fetal bovine serum, 1× penicillin/streptomycin and 0.05 mM 2-mercaptoethanol. At the start of the assay, undifferentiated THP-1 cells were plated at a density of 20,000 cells per well in a 384-well plate (Poly-D-lysine coated Cell Carrier Ultra microplate, Perkin Elmer catalog #6057500) in complete growth media supplemented with 10 ng/ml phorbol 12-myristate 13-acetate (PMA; Sigma catalog #P8139), and then incubated overnight. The next day, media was replaced with assay media [RPMI (Gibco catalog #11875-093), 0.01% bovine serum albumin (BSA)]. Compounds were serially diluted in DMSO and then added to wells one hour prior to the addition of 12.5 ug/ml Gramicidin (Enzo Lifescience, catalog #ALX-350-233-M005). All incubations were carried out at 37° C. (5% CO2/95% air). Following a 3-hour treatment with gramicidin, cells are fixed with 4% paraformaldehyde and stored at 4° C. until immunofluorescence staining.
Immunofluorescence staining: Anti-ASC antibody (MBL catalog #D086-3) was desalted and labeled with Alexa 488 antibody labeling kit (Thermo catalog #A20181) prior to use as described below. After fixation, the following steps were carried out at room temperature. Cells were first permeabilized with 0.3% Triton X-100 in phosphate-buffered saline (PBS) for 15 minutes and then incubated in blocking buffer containing 5% goat serum, 0.3% tween-20 and 0.03% sodium azide in PBS for 1 hour. Cells were stained with a mixture of ASC-Alexa 488 antibody (diluted 1:200 in blocking buffer) and nuclear stain DRAQ5 (1:5000 in blocking buffer, Thermo catalog #62251) in blocking buffer for 1 hour. Following a wash with 0.3% Tween-20 in PBS, plates were imaged with an Opera Phenix High Content Screening System. The number of DRAQ5 positive cells containing ASC SPECKS were quantified in each well.
Data analysis: EC50 values were calculated by standard curve-fitting analysis using an internally developed program in TIBCO Spotfire software.

In general, EC50 refers to the concentration at which the effect is half-maximal.

T1 sequence (Q96P20 whole entry): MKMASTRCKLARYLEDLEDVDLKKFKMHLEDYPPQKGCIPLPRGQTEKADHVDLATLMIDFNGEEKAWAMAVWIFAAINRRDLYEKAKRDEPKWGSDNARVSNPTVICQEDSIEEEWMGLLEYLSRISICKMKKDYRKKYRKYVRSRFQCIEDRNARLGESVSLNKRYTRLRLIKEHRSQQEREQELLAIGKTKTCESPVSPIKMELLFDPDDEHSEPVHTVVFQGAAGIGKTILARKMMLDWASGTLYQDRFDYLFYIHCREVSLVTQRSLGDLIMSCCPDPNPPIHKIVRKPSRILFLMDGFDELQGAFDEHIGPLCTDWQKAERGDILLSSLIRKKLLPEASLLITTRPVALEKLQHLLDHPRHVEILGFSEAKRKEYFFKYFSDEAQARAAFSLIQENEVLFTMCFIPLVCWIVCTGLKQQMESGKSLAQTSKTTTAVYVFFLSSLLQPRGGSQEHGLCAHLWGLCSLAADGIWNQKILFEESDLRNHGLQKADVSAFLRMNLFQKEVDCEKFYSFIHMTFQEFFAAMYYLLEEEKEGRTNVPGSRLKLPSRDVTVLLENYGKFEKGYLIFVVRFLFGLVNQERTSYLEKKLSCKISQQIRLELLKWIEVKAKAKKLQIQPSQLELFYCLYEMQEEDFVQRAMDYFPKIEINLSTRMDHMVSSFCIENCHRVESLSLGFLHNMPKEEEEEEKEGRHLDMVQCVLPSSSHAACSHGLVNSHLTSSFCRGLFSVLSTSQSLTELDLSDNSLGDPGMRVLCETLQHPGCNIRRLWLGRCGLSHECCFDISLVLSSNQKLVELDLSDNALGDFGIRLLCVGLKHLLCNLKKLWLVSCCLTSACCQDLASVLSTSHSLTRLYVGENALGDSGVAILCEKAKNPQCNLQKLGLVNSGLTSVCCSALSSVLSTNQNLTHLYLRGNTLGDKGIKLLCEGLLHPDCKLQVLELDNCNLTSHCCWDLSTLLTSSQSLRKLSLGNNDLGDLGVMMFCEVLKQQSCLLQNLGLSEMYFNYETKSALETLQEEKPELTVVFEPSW

With `CN1CC[C@H]2CCN(c3nnc(-c4ccc(C(F)(F)F)cc4O)c4cccnc34)[C@H]2C1` [Example 23, 2-(8-((3aS,7aR)-6-methyloctahydro-1H-pyrrolo[2,3-c]pyridin-1-yl)pyrido[2,3-d]pyridazin-5-yl)-5-(trifluoromethyl)phenol], the EC50 came to 5 nM.

Consider `O=C1COC2(CCN(c3nnc(-c4ccc(C(F)(F)F)cc4O)c4cccnc34)CC2)CN1` [Example 32, 9-(5-(2-hydroxy-4-(trifluoromethyl)phenyl)pyrido [2,3-d]pyridazin-8-yl)-1-oxa-4,9-diazaspiro[5.5]undecan-3-one], for which the EC50 turned out to be 330 nM.

With `C[C@@H]1CN(c2nnc(-c3ccc(C(F)(F)F)cc3O)c3ccncc23)C[C@H](C)[C@H]1O` (single isomer, unassigned) [Example 18], the EC50 is 23 nM.

As to `CC1(C)CCOC12CCN(c1nnc(-c3ccc(C(F)(F)F)cc3O)c3cccnc13)CC2` [Example 37, 2-(8-(4,4-dimethyl-1-oxa-8-azaspiro[4.5]decan-8-yl)pyrido[2,3-d]pyridazin-5-yl)-5-(trifluoromethyl)phenol], the EC50 was determined as 1130 nM.

Consider `Oc1cc(C(F)(F)F)ccc1-c1nnc(N2CC(O)C3(CC3)C2)c2ncccc12` (racemic) [Example 44, (R and S)-5-(5-(2-hydroxy-4-(trifluoromethyl)phenyl)pyrido [2,3-d]pyridazin-8-yl)-5-azaspiro[2.4]heptan-7-ol], for which the concentration for a half-maximal effect (EC50) came to 591 nM.

For `C[C@@H]1C[C@](O)(c2nnc(-c3ccc(C(F)(F)F)cc3O)c3cccnc23)C[C@H](C)O1` [Example 54, (2R,4s,6S)-4-(5-(2-hydroxy-4-(trifluoromethyl)phenyl)pyrido[2,3-d]-pyridazin-8-yl)-2,6-dimethyltetrahydro-2H-pyran-4-ol], the concentration for a half-maximal effect (EC50) came out at 1100 nM.

On to `C[C@]1(O)CCN(c2nnc(-c3ccc(C(F)(F)F)cc3O)c3ccncc23)C1` (single isomer, unassigned) [Example 2], for which the EC50 was found to be 49 nM.

On to `C[C@]1(O)CCN(c2nnc(-c3ccc(C(F)(F)F)cc3O)c3ccc(C(F)(F)F)nc23)C1` [Example 12, (S)-1-(5-(2-hydroxy-4-(trifluoromethyl)phenyl)-2-(trifluoromethyl)pyrido[2,3-d]pyridazin-8-yl)-3-methylpyrrolidin-3-ol], for which the EC50 is 621 nM.

Turning to `C[C@@H]1CN(c2nnc(-c3ccc(C(F)(F)F)cc3O)c3ccnnc23)C[C@H](C)O1` [Example 8, 2-(8-((cis)-2,6-dimethylmorpholino)pyridazino[4,5-c]pyridazin-5-yl)-5-(trifluoromethyl)phenol], the 50% effective concentration (EC50) amounted to 515 nM.

Consider `C[C@@H]1CN(c2nnc(-c3ccc(C(F)(F)F)cc3O)c3cccnc23)C[C@H](C)S1(=O)=O` [Example 26, (cis)-4-(5-(2-hydroxy-4-(trifluoromethyl)phenyl)pyrido [2,3-d]pyridazin-8-yl)-2,6-dimethylthiomorpholine 1,1-dioxide], for which the concentration for a half-maximal effect (EC50) came out at 96 nM.

On to `CC(C)(O)[C@H]1CCN(c2nnc(-c3ccc(C(F)(F)F)cc3O)c3cccnc23)C1` [Example 50, (S)-2-(8-(3-(2-hydroxypropan-2-yl)pyrrolidin-1-yl)pyrido[2,3-d]pyridazin-5-yl)-5-(trifluoromethyl)phenol], for which the EC50 was determined as 1330 nM.

As to `C[C@@H]1CN(c2nnc(-c3ccc(C(F)(F)F)cc3O)c3ncccc23)C[C@H](C)O1` [Example 6, 2-(5-((cis)-2,6-dimethylmorpholino)pyrido[2,3-d]pyridazin-8-yl)-5-(trifluoromethyl)phenol], the concentration for a half-maximal effect (EC50) is 1850 nM.

For the compound `CN1C(=O)CCC12CCN(c1nnc(-c3ccc(C(F)(F)F)cc3O)c3cccnc13)CC2` [Example 39, 8-(5-(2-hydroxy-4-(trifluoromethyl)phenyl)pyrido [2,3-d]pyridazin-8-yl)-1-methyl-1,8-diazaspiro[4.5]decan-2-one], the concentration giving a half-maximal response (EC50) turned out to be 563 nM.

On to `CCC1(O)CCN(c2nnc(-c3ccc(C(F)(F)F)cc3O)c3cccnc23)C1` (racemic) [Example 47, (R and S)-3-ethyl-1-(5-(2-hydroxy-4-(trifluoromethyl)phenyl)pyrido [2,3-d]pyridazin-8-yl)pyrrolidin-3-ol], for which the half-maximal effective concentration (EC50) is 494 nM.

On to `Cc1cc(C(F)(F)F)ccc1-c1nnc([C@H]2C[C@@H](C)O[C@@H](C)C2)c2ccccc12` [Example 53, 1-((2R,4r,6S)-2,6-dimethyltetrahydro-2H-pyran-4-yl)-4-(2-methyl-4-(trifluoromethyl)phenyl)phthalazine], for which the EC50 was 3970 nM.

Turning to `C[C@]1(O)CCN(c2nnc(-c3ccc(C(F)(F)F)cc3O)c3cnccc23)C1` (single isomer, unassigned) [Example 1], the EC50 was determined as 356 nM.

As to `C[C@@H]1CN(c2nnc(-c3ccc(C(F)(F)F)cc3O)c3ccncc23)C[C@H](C)[C@]1(C)O` (single isomer, unassigned) [Example 16], the EC50 came out at 70 nM.

On to `C[C@]1(O)CCN(c2nnc(-c3ccc(C(F)(F)F)cc3O)c3cc(C(F)F)cnc23)C1` [Example 57], for which the EC50 came to 1570 nM.

For the compound `O=C1NC2(CCN(c3nnc(-c4ccc(C(F)(F)F)cc4O)c4cccnc34)CC2)CO1` [Example 25, 8-(5-(2-hydroxy-4-(trifluoromethyl)phenyl)pyrido [2,3-d]pyridazin-8-yl)-3-oxa-1,8-diazaspiro[4.5]decan-2-one], the half-maximal effective concentration (EC50) turned out to be 148 nM.

As for `Cc1ccc2c(N3C[C@@H](C)O[C@@H](C)C3)nnc(-c3ccc(C(F)(F)F)cc3O)c2c1` [Example 21, 2-(4-((cis)-2,6-dimethylmorpholino)-7-methylphthalazin-1-yl)-5-(trifluoromethyl)phenol], the half-maximal effective concentration (EC50) was 815 nM.

With `CC1(CO)CCN(c2nnc(-c3ccc(C(F)(F)F)cc3O)c3cccnc23)C1` (racemic) [Example 48, (R and S)-2-(8-(3-(hydroxymethyl)-3-methylpyrrolidin-1-yl)pyrido[2,3-d]pyridazin-5-yl)-5-(trifluoromethyl)phenol], the EC50 was 411 nM.

Regarding `C[C@@H]1CN(c2nnc(-c3ccc(C(F)(F)F)cc3O)c3cccnc23)C[C@H](C)[C@]1(C)O` [Example 24, (3S,4s,5R)-1-(5-(2-hydroxy-4-(trifluoromethyl)phenyl)pyrido [2,3-d]pyridazin-8-yl)-3,4,5-trimethylpiperidin-4-ol], the 50% effective concentration (EC50) came to 52 nM.

Consider `Cc1ccc2c(-c3ccc(C(F)(F)F)cc3O)nnc(N3C[C@@H](C)O[C@@H](C)C3)c2c1` (single isomer, unassigned) [Example 20, 2-(4-((cis)-2,6-dimethylmorpholino)-6-methylphthalazin-1-yl)-5-(trifluoromethyl)phenol], for which the EC50 was 33 nM.

`CC(C)(O)[C@@H]1CCN(c2nnc(-c3ccc(C(F)(F)F)cc3O)c3cccnc23)C1` [Example 49, (R)-2-(8-(3-(2-hydroxypropan-2-yl)pyrrolidin-1-yl)pyrido[2,3-d]pyridazin-5-yl)-5-(trifluoromethyl)phenol]: the EC50 was determined as 1790 nM.

As to `CN1CC2(CCN(c3nnc(-c4ccc(C(F)(F)F)cc4O)c4cccnc34)CC2)OC1=O` [Example 36, 8-(5-(2-hydroxy-4-(trifluoro-methyl)phenyl)pyrido[2,3-d]-pyridazin-8-yl)-3-methyl-1-oxa-3,8-diazaspiro[4.5]decan-2-one], the EC50 is 742 nM.

Consider `CC1CN(c2nnc(-c3ccc(C(F)(F)F)cc3O)c3cccnc23)CC(CO)O1` (single isomer, unassigned) [Example 52, 2-(8-((2S,6S or 2R,6R)-2-(hydroxy-methyl)-6-methyl-morpholino)pyrido[2,3-d]pyridazin-5-yl)-5-(trifluoro-methyl)phenol], for which the concentration for a half-maximal effect (EC50) stood at 74 nM.

For `O=C1NCC2(CCN(c3nnc(-c4ccc(C(F)(F)F)cc4O)c4cccnc34)CC2)O1` [Example 40, 8-(5-(2-hydroxy-4-(trifluoromethyl)phenyl)pyrido [2,3-d]pyridazin-8-yl)-1-oxa-3,8-diazaspiro[4.5]decan-2-one], the EC50 is 304 nM.

On to `C[C@@H]1CN(c2nnc(-c3ccc(C(F)(F)F)cc3O)c3cnccc23)C[C@H](C)O1` [Example 5, 2-(1-((cis)-2,6-dimethylmorpholino)pyrido[3,4-d]pyridazin-4-yl)-5-(trifluoromethyl)phenol], for which the EC50 turned out to be 556 nM.

For the compound `C[C@@H]1C[C@@](O)(c2nnc(-c3ccc(C(F)(F)F)cc3O)c3cccnc23)C[C@H](C)O1` [Example 55, (2R,4r,6S)-4-(5-(2-hydroxy-4-(trifluoromethyl)phenyl)pyrido[2,3-d]-pyridazin-8-yl)-2,6-dimethyltetrahydro-2H-pyran-4-ol], the EC50 stood at 1340 nM.

The values are drawn from patent US20240124451A1, “PHTHALAZINE DERIVATIVES USEFUL AS INHIBITORS OF NOD-LIKE RECEPTOR PROTEIN 3” (Merck Sharp & Dohme LLC, priority 2022, published 2024).
